Measurements: patent publication US5019384A, “Immunonodulating compositions and their use” (Massachusetts Institute of Technology, priority 1989, dated 1991)
“Also recorded” adds a separate entry of the source. Like-named read-outs stand apart in the source and are kept apart here.

Experiments:
[1] = molecular target: T1, I-A^k (Mus musculus, UniProt P01910+P06343); test: Gel filtration binding of 125I-labeled peptide to purified Ia (I-A^k); conditions: I-A^k; 125I-labeled peptide, 48 hours at room temperature, no inhibitor
T1 construct: endogenous in cells
Source text: (§1) The peptide P12-26 was modified by the addition of a tyrosine residue to the N-terminus to serve as an acceptor for the ^125 I.
(§2) Ia-molecules were purifed from Nonidet P-40 (NP-40) lysates of A20 (H2^d) or AKTB-1b (H2^k) cells by affinity chromatography using the following monoclonal antibodies: MK-D6 (I-A^d -specific), 10-3-6 (I-A^k -specific) specific) or 14-4-4 (I-E^d/k -specific) coupled to Sepharose 4B beads (Pharmacia Fine Chemicals, Sweden).
(§3) A gel filtration assay was used for determining the degree of association between immunogenic peptides and Ia. The assay is described in: Buus, S. et al., Proceeding of the National Academy of Sciences, U.S.A. (1986) 83:3968, the teaching of which is incorporated herein by reference. Briefly, 40 μmole of purified Ia in 1 percent NP-40/PBS was mixed with 0.2 μmole of ^125 I-labeled peptide (approximately 200,000 cpm for each experiment) and incubated for 48 hours at room temperature to allow for formation of the Ia-peptide complex. The Ia-peptide complexes were separated from free peptide by gel filtration and the percentage of peptide bound to Ia was calculated as the ratio of the ^125 I-labeled peptide in the void volume to the total ^125 I-labeled peptide recovered.

[2] = tested on: T-cell hybridoma DO-11.10; assay type: cell-based
[3] = tested on: T-cell hybridoma 7B7.3; test: Activation of T-cell hybridoma 7B7.3 measured by IL-2 secretion; assay type: cell-based, Balb/c mouse; conditions: for Inhibition of P15-26-dependent 7B7.3 activation: P15-26 as activator, I-A^d context, IL-2 release; for Stimulation of 7B7.3: in the context of I-A^d
Procedure: (§4) T-cell hybridomas were obtained as described in Guillet et al., Science (1985) 235:865-870: and Lechler et al., J. Exp. Med. (1986) 163:678-696 (particularly references cited therein). The procedure for determining inhibition or activation is described in Guillet et al., supra.
(§5) The activation of T-cell hybridomas was measured by their ability to secrete IL-2 (T-cell hybridomas (5×10^4) that were incubated with 5×10^4 antigen-presenting cells in wells of a 96-well tissue Costar plate (no. 3596) in 200 μl RPMI complete medium containing the appropriate antigen concentrations). After 24 hrs of culture, supernatant (50 μl) was removed and then assayed for IL-2 content by its ability to maintain the growth of the IL-2 Dependent CTL-L cells: 1 μCi of ^3 H tritiated thymidine was added per well. Six hours later the cells were harvested by an automatic cell harvester (Skartron Inc., Sterling, Va.) and thymidine incorporation measured by scintillation counting.
The activity of T-cell hybridoma 7B7.3 was measured in the presence of various concentrations of P15-26, either in RPMI 1640 with 10 percent fetal calf serum alone or in the presence of P12-24 20 μM or P12-24 60 μM. A20 B-cell lymphomas (5×10^4 cells/well) were used as antigen presenting cells. After 24 hrs of culture, supernatant (50 μl) was harvested and then assayed for IL-2 concentration by following incorporation of ^3 H thymidine into the IL-2 dependent CTL-L cell line (10^4 cells/well). The indicated values in FIG. 2 represent the arithmetic mean of triplicate samples.
The following work was carried out to examine the competitive ability of peptides derived from Staphylococcus nuclease (Nase), residues 61-80 (P61-80) and from ovalbumin (Ova), residues 324-336 (P324-336) to inhibit P15-26-dependent activation of the hybridoma 7B7.3. Each of these peptides has been shown in their respective cases to be I-A^d -restricted and to be immunodominant for their respective antigens. Finnegan, A. et al. Journal of Experimental Medicine (1986) 164:897-910: Shimonkevitz, R. et al., Journal of Immunology (1984). 5×10^4 TA3 cells were added to each well. Various concentrations of P15-26 were added with either medium (RPMI 1640 with 10 percent fetal calf serum) alone or 30 μM or Ova (P324-36) of 60 μM of Nase ([…]). A20 B-cell lymphoma (5×10^4 cells/well) was used as antigen presenting cells. 7B7.3 T-cell hybridomas (5×10^4) were then added and cultured for 24 hrs. The level of T-cell stimulation was assayed by determining the IL-2 concentration as indicated in Example II. […] The degree of inhibition is […] upon the ratio of activator to inhibitor in each case.

[4] = tested on: T-cell hybridoma 8I; test: Activation of T-cell hybridoma 8I measured by IL-2 secretion; assay type: cell-based, A/J strain; conditions: for Stimulation of 8I: in the context of I-E^k
Procedure: as §4, §5
8I (I-E^k -restricted) T-cell hybridomas and TA3 B presenting cells (5×10^4) were cocultured with various concentration of P15-26 and either medium alone or 60 μM of Ova (P324-336) or 60 μM Nase (P61-80) as described above. […] In addition, no other peptides representative of the remainder of the Nase sequence were able to inhibit 7B7.3 activation.

[5] = molecular target: T2, I-A^d (Mus musculus, UniProt P01921+P04228); test: Gel filtration binding of 125I-labeled peptide to purified Ia (I-A^d); conditions: I-A^d; 125I-labeled peptide, 48 hours at room temperature, no inhibitor
T2 construct: endogenous in cells
T2 sequence (P04228 24-256): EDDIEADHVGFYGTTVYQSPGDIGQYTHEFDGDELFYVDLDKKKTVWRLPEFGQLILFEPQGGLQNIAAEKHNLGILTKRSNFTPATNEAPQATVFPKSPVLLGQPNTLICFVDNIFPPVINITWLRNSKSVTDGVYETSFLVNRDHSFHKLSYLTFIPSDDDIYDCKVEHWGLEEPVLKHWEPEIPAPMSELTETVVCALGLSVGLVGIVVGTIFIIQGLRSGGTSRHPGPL
T2 sequence (P01921 28-265): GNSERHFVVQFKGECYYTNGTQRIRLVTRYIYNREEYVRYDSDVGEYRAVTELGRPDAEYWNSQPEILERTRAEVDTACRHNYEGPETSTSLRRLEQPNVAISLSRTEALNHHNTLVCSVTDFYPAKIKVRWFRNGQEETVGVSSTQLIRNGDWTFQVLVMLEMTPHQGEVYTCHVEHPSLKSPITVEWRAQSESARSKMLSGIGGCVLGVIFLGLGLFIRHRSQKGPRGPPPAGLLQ
Source text: as §1, §2, §3

T1 sequence (P01910 24-256): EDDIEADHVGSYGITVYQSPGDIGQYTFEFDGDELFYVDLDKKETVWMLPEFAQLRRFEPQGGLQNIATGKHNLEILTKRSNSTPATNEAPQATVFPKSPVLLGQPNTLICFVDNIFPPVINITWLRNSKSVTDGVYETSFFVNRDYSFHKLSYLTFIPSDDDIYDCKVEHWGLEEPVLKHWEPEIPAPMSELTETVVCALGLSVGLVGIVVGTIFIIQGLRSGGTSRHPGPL
T1 sequence (P06343 28-263): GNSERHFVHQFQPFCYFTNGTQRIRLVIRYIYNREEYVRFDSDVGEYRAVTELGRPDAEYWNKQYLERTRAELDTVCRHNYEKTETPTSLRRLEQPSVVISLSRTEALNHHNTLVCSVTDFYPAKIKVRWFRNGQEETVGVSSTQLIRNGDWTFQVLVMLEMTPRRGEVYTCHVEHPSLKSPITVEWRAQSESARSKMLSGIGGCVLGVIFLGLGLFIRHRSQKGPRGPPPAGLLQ

Row | Substance | Stimulation of DO-11.10 [2] | Inhibition of P15-26-dependent 7B7.3 activation [3] | Stimulation of 7B7.3 [3] | Stimulation of 8I [4] | further results
1 | Lysozyme (Hen) (P46-61): lysozyme-derived peptide restricted by I-A^k [reference compound] | – | – | – | – | Percent of Peptide Bound [1]: 21.5%
2 | Ova (P324-336): peptide from ovalbumin (Ova), residues 324-336, truncated analog of P323-339 (ISQAVHAAHAEIN; UniProt P01012 324-336, looked up, fragment) [reference compound] | responds less well | inhibit 7B7.3 activation in a dose-dependent manner | – | – | Effect on 8I activation ([4]; TA3 presenting cells, P15-26 stimulator, competitor peptide 60 μM): without effect
3 | P15-26: peptide which contains amino acid residues 15-26 of cI | – | – | is stimulated; also recorded: can be stimulated | recognizes the same peptide | EC50 ([3]; 7B7.3 co-cultured with P15-26 and P12-24 at 20 μM, read-out: 50 percent stimulation point of the P15-26 antigen dose response curve): 29.8 ± 2.8 µM; EC50 ([3]; 7B7.3 co-cultured with P15-26 and P12-24 at 60 μM, read-out: 50 percent stimulation point of the P15-26 antigen dose response curve): 70.3 µM; EC50 ([3]; P15-26 cultured with 7B7.3 alone, A20 antigen presenting cells, 24 hrs, IL-2, read-out: 50% stimulation point of the P15-26 antigen dose response curve): 20.7 ± 1.2 µM
4 | P323-339: peptide P323-339 derived from ovalbumin (KISQAVHAAHAEINEAG; UniProt P01012 323-339, looked up, fragment) [reference compound] | responds to | – | – | – | Percent of Peptide Bound [5]: 10.6%
5 | P12-24: homologous peptide which contains residues 12-24 of cI | – | inhibited activation by P15-26 in a dose-dependent manner; also recorded: inhibition of P15-26-dependent7B7.3 activation was observed; also recorded: inhibit activation by P15-26 in a dose dependent manner | Neither 7B7.3 nor 8I can be stimulated; also recorded: Neither T-cell can be stimulated | Neither 7B7.3 nor 8I can be stimulated; also recorded: Neither T-cell can be stimulated | Effect on 8I activation (IL-2 response) ([4]; I-E^k-restricted hybridoma, P12-24 as competitor): no statistically significant effect; also recorded: had no effect
